Like-named read-outs stand apart in the source and are kept apart here. Marks after values point to notes of the source that are not given here.
How the values were obtained:
adjuvant arthritis = assay: Anti-adjuvant-arthritic activity; assay type: in vivo, SD rats; settings: 10 mg/kg orally once a day for 14 days; volume of left hind limb (not injected); day of reading not given
Experimental: Anti-Adjuvant-Arthritic Activity
Male SD origin male-rats (6 weeks old, CLEA Japan, 1 group: n=7) were used. The adjuvant arthritis method was conducted according to the method of Newbould B. B. et. al., (Brit. J. Pharmacol. Chemother., vol. 21, p. 127, 1963). Complete Freund's adjuvant (a suspension of killed tubercule bacillus in liquid paraffin at a concentration of 0.5%, 0.05 mL) was injected into the right hind limb footpad intracutaneouly to induce multiple arthritis. Samples were administered orally (10 mg/kg, b.w.), once a day for 14 days from the day before the injection day 0 to day 13. Volume of the left hind limb (not injected) was determined by the foot-volume measurement apparatus manufactured by Ugo Basile, on the day just before the adjuvant shot (Day 0), Day 10 and Day 14, and repression rate (%) was calculated comparing the values between the sample group and the control group.

yeast-induced pyrexia = assay: Antipyretic activity in yeast-induced pyrexia; assay type: in vivo, SD rats; settings: 10 mg/kg orally; maximum difference in body temperature vs control over 6 hours
Experimental: Antipyretic Activity in Yeast-Induced Pyrexia Antipyretic activity was determined using male SD origin male-rats (7 weeks old, CLEA Japan, 1 group: n=6), according to the method of winter et. al. (J. Pharmacol. Exp. Ther., vol. 138, p. 405, 1963). Before 16 hours from measurement of body temperature, a suspension of 15% yeast in saline was injected subcutaneously (10 mL/kg, b.w.) into the rats to induce fever, and simultaneously supply of food was terminated while water was made available all the time. Each of the rats was raised separately. After 16 hours from the yeast shot, a thermistor terminal was inserted at an about 4 cm depth into rectum every hour, and the body temperatures after 30 seconds were recorded. After 18 hours, rats developing fevers consistently were selected, and a sample was orally administered to the rats (5 mL/kg, b.w.), while to the control, only the solvent was administered. After the administration, body temperatures were measured every hour for a period of 6 hours, and the maximum difference in body temperature between the rats in the sample group and in the control group were determined as Δ (° C.).

[1] = system: mucosa of small intestine; assay: Disorder of mucosa of small intestine; assay type: in vivo, SD rats; settings: 100 mg/kg orally, freely fed rats, 6 hours after dosing
Experimental: Disorder of Mucosa of Small Intestine Male SD origin male-rats (7 weeks old, CLEA Japan) were used. To the rats freely fed, samples were administered orally (5 mL/kg, b.w.). After 5.5 hours from the administration, Evan's Blue (0.5% Evan's Blue/saline) was injected (1 mL/rat) intravenously under no anesthesia. After 30 minutes from the shot, the intestine was removed by celiotomy and the area thereof facing mesentery was cut open. After removal of intestinal content, the spots in the intestine dyed by Evan's Blue were measured under a stereomicroscope, and the total length (mm) of the spots was determined by a counter and recorded.

[2] = system: acetic acid induced rising and stretching; assay: Analgesic activity, acetic acid rising method; assay type: in vivo, ICR-mice; settings: po, 20 min; 10 mg/kg orally, 30 minutes before 0.6% acetic acid i.p.; number of rising and stretching in 20 minutes; read-out: Repression rate (%) Dosage 10 mg/kg
Experimental: Analgesic Activity Acetic Acid Rising Method Male ICR-mice (5 weeks old, CLEA Japan) were used (1 group, n=10), and a sample was orally administered (0.2 mL/10 g, b.w.). After 30 minutes, 0.6% acetic acid solution was injected to mice intraperitoneally (0.1 mL/10 g, b.w.), and the mice were immediately transferred into an observation cage made of a transparent acrylic resin. The number of rising and stretching during the following period of 20 minutes was counted. The repression rate (%) was calculated by comparing the average numbers between the sample groups and the control groups.

[3] = system: carrageenin edema of right hind limb plantar; assay: Anti-inflammatory activity, carrageenin edema method; assay type: in vivo, SD-rats; settings: po, 10 mg/kg orally
Experimental: Anti-Inflammatory Activity
Male SD-rats (6 weeks old, CLEA Japan) were used (1 group, n=6). The Carrageenin edema method was performed according to the method of Winter et. al., (Proc. Soc. Exp. Biol. Med., vol. 111, p. 544-547, 1962). After the volume of right hind limb plantar of the rat was determined, a sample was orally administered (1.0 mL, b.w.), and immediately water was orally administered in an amount of 5 mL/rat. Meanwhile, only the solvent of the sample was orally administered to rats in control. After 1 hour, a solution of 1% carrageenin in saline (0.05 mL) was injected into the right hind limb plantar subcutaneously to induce edema. After 2 and 3 hours later from the injection, volumes of the right hind limb plantar were determined. The repression rate (%) of the sample was calculated by comparing the difference of the volumes of the plantar before the carrageenin shot and 2 and 3 hours after the shot between the sample groups and the control groups.

human COX-2 = molecular target: T1, human COX-2 (Homo sapiens, UniProt P35354); assay: Determination of COX-2 inhibitory activity (microsome fraction, chemiluminescence); assay type: biochemical; settings: microsome fraction 20 μg, arachidonic acid, 37° C. 25 minutes preincubation; read-out: Repression rate IC50 (μM) COX-2
T1 construct: made in house; host or cells: Sf-21 insect cells (recombinant baculovirus BAC-COX2, pFASTBAC1); microsome fraction
T1 sequence (P35354 18-604): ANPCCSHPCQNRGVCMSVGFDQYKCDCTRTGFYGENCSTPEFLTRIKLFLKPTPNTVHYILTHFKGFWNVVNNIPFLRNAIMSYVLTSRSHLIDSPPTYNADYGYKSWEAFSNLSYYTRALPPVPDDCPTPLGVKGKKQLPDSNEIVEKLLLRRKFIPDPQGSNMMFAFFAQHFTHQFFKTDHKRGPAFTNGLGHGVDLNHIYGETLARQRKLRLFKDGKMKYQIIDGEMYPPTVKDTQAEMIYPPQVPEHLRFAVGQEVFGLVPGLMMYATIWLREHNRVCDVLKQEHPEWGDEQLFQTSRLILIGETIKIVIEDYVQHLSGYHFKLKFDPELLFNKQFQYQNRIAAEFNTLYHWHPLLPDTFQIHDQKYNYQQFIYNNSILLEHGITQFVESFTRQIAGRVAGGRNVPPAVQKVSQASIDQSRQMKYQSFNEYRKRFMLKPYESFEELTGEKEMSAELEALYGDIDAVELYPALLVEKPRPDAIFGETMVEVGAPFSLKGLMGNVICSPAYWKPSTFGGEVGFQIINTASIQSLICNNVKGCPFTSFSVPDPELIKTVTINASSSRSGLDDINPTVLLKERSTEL
Experimental: A 1.8 kb DNA fragment containing human COX-2 cDNA (Proc. Natl. Acad. Sci. U.S.A., vol. 89 (16), p. 7384-7388 (1992)) prepared by the PCR method was inserted into plasmid pFASTBAC1 (CIBCOBRAL) to obtain a plasmid pFBCOX2.
Using the plasmid pFBCOX2 and BAC-TO-BAC Baculovirus Expression System (GIBCOBRAL), a virus stock BAC-COX2 of the recombinant baculovirus was prepared.
Sf-21 cells were inoculated in 125 mL of LSf-900 II SFM medium (GIBCOBRAL) at a concentration of 1×10^6 cells/mL, and the medium was incubated at 27° C. for 24 hours. 0.75 mL of the virus stock BAC-COX2 of the recombinant baculovirus was added thereto, and was incubated further for 72 hours. The cells were separated from the medium by centrifugation (3000 rpm, 10 min), and washed with PBS twice. The cells were suspended in 10 mL of a Lysis buffer (0.1M Tris-HCl (pH 7.4), 5 mM EDTA), and were treated with a homogenizer (POLYTRON), three times at 20000 rpm for 20 seconds so that the cells were crushed. The supernatant thus obtained after centrifugation (2000 rpm, 10 minutes) was further centrifuged (40000 rpm, 45 minutes) to obtain a precipitate, which was resuspended in a Lysis buffer (0.1M Tris-HCl (pH 7.4), 5 mM EDTA), and the suspension was stored at −80° C.
(§1) Determination of COX-1 and COX-2 Inhibitory Activities
(§2) To a mixture of 20 μL of a reaction buffer previously concentrated 10 times (1M Tris-HCl (pH8.0), 50 mM EDTA, 1.0% Tween 20, 50 mM luminol, 100 μM hematin), 20 μL of the microsome fractions (COX-1: 40 μg, COX-2: 20 μg), and 55 μL of distilled water, a sample compound dissolved in DMF (5 μL) was added, and the mixture was left at 37° C. for 25 minutes. The reaction was started by the addition of 20 μM arachidonic acid (100 μL), and chemiluminescence amount during the 10-second period after the addition of arachidonic acid was determined by the use of Lumistar (BMG Lab technologies, GmbH). The inhibition rate was calculated, regarding that the enzyme activity when DMF ([…]) was added was 100%, and the enzyme activity when 4 mM flurbiprofen (5 μL) was added was 0%.

human COX-1 = molecular target: T2, human COX-1 (Homo sapiens, UniProt P23219); assay: Determination of COX-1 inhibitory activity (microsome fraction, chemiluminescence); assay type: biochemical; settings: microsome fraction 40 μg, arachidonic acid, 37° C. 25 minutes preincubation; read-out: Repression rate IC50 (μM) COX-1
T2 construct: made in house; host or cells: Sf-21 insect cells (recombinant baculovirus BAC-COX1, pFASTBAC1); microsome fraction
Experimental: A 1.8 kb DNA fragment containing human COX-1 cDNA (FASEB J., vol. 5 (9), p. 2304-2312 (1991)) prepared by the PCR method was inserted into plasmid pFASTBAC1 (CIBCOBRL) to obtain a plasmid pFBCOX1.
Using the plasmid pFBCOX1 and BAC-TO-BAC Baculovirus Expression System (GIBCOBRL), a virus stock BAC-COX1 of the recombinant baculovirus was prepared.
Sf-21 cells were inoculated in 125 mL of Sf-900 II SFM medium (GIBCOBRL) at a concentration of 1×10^6 cells/mL, and the medium was incubated at 27° C. for 24 hours. 0.75 mL of the virus stock BAC-COX1 of the recombinant baculovirus was added thereto, and the mixture was incubated further for 72 hours. The cells were separated from the medium by centrifugation (3000 rpm, 10 min), and washed with PBS twice. The cells were suspended in 10 mL of a Lysis buffer (0.1M Tris-HCl (pH 7.4), 5 mM EDTA), and were treated with a homogenizer (POLYTRON) three times at 20000 rpm for 20 seconds so that the cells were crushed. The supernatant obtained after centrifugation (2000 rpm, 10 minutes) was further centrifuged (40000 rpm, 45 minutes) to give a precipitate, which was resuspended in a Lysis buffer (0.1M Tris-HCl (pH 7.4), 5 mM EDTA), and the suspension was stored at −80° C.
as §1, §2

[4] = 2 hr after carrageenin injection, read-out: Repression rate (%) Dosage 10 mg/kg 2 hr later
[5] = 3 hr after carrageenin injection, read-out: Repression rate (%) Dosage 10 mg/kg 3 hr later

T2 sequence (P23219 24-599): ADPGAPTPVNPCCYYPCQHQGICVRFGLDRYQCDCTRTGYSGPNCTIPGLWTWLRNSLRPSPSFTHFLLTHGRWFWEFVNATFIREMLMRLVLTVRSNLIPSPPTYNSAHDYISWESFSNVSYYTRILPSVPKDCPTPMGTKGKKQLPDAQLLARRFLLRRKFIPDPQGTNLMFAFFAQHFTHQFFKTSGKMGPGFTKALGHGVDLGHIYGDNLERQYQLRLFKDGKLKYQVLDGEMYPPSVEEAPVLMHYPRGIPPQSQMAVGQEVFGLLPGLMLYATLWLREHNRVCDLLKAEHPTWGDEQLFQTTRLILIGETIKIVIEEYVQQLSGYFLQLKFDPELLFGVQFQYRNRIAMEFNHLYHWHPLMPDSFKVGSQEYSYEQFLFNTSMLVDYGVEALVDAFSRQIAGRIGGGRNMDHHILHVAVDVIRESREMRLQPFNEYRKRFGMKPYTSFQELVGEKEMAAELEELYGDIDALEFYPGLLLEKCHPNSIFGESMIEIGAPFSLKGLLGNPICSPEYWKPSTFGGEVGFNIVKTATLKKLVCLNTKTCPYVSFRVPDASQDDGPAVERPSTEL

Compound | Repression rate (%) Dosage 10 mg/kg (adjuvant arthritis) | melting point | inhibition in vivo at 10 mg/kg [2] | inhibition in vivo at 10 mg/kg [3, 4] | inhibition in vivo at 10 mg/kg [3, 5] | further results
Cc1nn(-c2ccccn2)c2nc3ccccc3c(OC(C)C)c12 [Example 2-18, 4-Isopropoxy-3-methyl-1-(2-pyridinyl)-1H-pyrazolo[3,4-b]quinoline] | 47% | 93 to 96 °C | – | – | – | Δ (° C.) Dosage 10 mg/kg (yeast-induced pyrexia): 1.7** ° C.
Cc1nn(-c2ccccn2)c2[nH]c3ccc(C(F)(F)F)cc3c(=O)c12 [Example 2-40, 3-Methyl-1-(2-pyridinyl)-6-(trifluoromethyl)-l,9-dihydro-4H-pyrazolo[3,4-b]quinolin-4-one] | – | – | – | – | – | Total length of dyed spots (mm) [1]: 0 (100 mg/kg) mm
O=c1c2cc(Cl)ccc2[nH]c2c1cnn2-c1ccccn1 [Example 2-161, 6-Chloro-1-(2-pyridinyl)-1,9-dihydro-4H-pyrazolo[3,4-b]quinolin-4-one] | – | 297 to 298 °C | 74% | 33% | 33% | Δ (° C.) Dosage 10 mg/kg (yeast-induced pyrexia): 1.4** ° C.
Cc1nn(-c2ccccn2)c2[nH]c3cc(F)c(Cl)cc3c(=O)c12 [Example 2-99, 6-Chloro-7-fluoro-3-methyl-1-(2-pyridinyl)-1,9-dihydro-4H-pyrazolo[3,4-b]quinolin-4-one] | – | 284 °C | 39% | 46% | 41% | –
COC(=O)c1cccc2[nH]c3c(c(C)nn3-c3ccccn3)c(=O)c12 [Example 2-61, Methyl 3-methyl-4-oxo-1-(2-pyridinyl)-4,9-dihydro-1H-pyrazolo[3,4-b]quinoline-5-carboxylate] | – | 241 to 244 °C | 75% | 36% | 28% | IC50 (human COX-2): 44 µM; IC50 (human COX-1): 2 µM
Cc1nn(-c2ccccn2)c2[nH]c3cc(F)ccc3c(=O)c12 [Example 2-83, 7-Fluoro-3-methyl-1-(2-pyridinyl)-1,9-dihydro-4H-pyrazolo[3,4-b]quinolin-4-one] | 65* % | 260 to 261 °C | – | – | – | –
Cc1nn(-c2ccccn2)c2[nH]c3ccc(F)cc3c(=O)c12 [Example 2-81, 6-Fluoro-3-methyl-1-(2-pyridinyl)-1,9-dihydro-4H-pyrazolo[3,4-b]quinolin-4-one] | 56% | 278 to 280 °C | – | – | – | –
Cc1nn(-c2ccccn2)c2[nH]c3ccccc3c(=O)c12 [Example 2-12, 3-Methyl-1-(2-pyridinyl)-1,9-dihydro-4H-pyrazolo[3,4-b]quinolin-4-one] | – | – | – | – | – | Total length of dyed spots (mm) [1]: 0 (100 mg/kg) mm
